# Test system: T. gondii tachyzoites
# Assay: Immunofluorescence confocal microscopy of T. gondii tachyzoites with serum of mice immunized with the compound 4-CRM197 conjugate
# Format: binding, Toxoplasma gondii
# Details: paraformaldehyde-fixed tachyzoites, pooled serum from immunized mice, FIG. 13
# Method: Full circle in (C) indicates the apical and half circle the basolateral end of the parasite (white bar=5 μm).
# Extracellular tachyzoites collected from cell culture supernatants were fixed with 4% (w/v) paraformaldehyde in PBS for 30 min. Cells were washed three times with PBS, and incubated for 1 h with mice sera raised against compounds 3 or 4 diluted to 100 in PBS, 10% BSA. Cells were washed three times with PBS before incubated for 1 h with secondary FITC-conjugated anti-mouse immunoglobulin antibody (DakoCytomation, Glostrup) containing 10% BSA and washed finally three times with PBS. After three final washes with PBS, aliquot were spotted on microscope slides followed by a glass cover slides, mounted in Fluoroprep (Dako) and recorded by using a 100× Plan-NeoFluar oil objective lens with NA 1.30 using an Axiophot microscop (Zeiss).
# In contrast, antibodies binding to the parasite in sera of mice before immunization could not be detected. […] Tachyzoites secrete factors for attachment, invasion and formation of the parasitophorous vacuole, which is surrounding and protecting the parasite inside the host cell from endocytosis, in a regulated fashion from the apical region. […]
substance,measurement,value
6-O-(aminoethyl phosphono)-α-D-mannopyranosyl-(1→2)-α-D-mannopyranosyl-(1→6)-4-O-(α-D-glucopyranosyl-(1→4)-2-deoxy-2-acetamido-β-D-galactopyranosyl)-α-D-manno-pyranosyl-(1→4)-2-amino-2-deoxy-α-D-glucopyranosyl-(1→6)-1-O-(thiohexyl phosphono)-D-myo-inositol [compound 4],recognition of the natural GPI antigen on the T. gondii parasite by antibodies raised against the substance,bound to the surface of the parasite

# From patent US9802974B2, “Synthesis of diverse glycosylphosphatidylinositol glycans from Toxoplasma gondii and their application as vaccines and diagnostics” (Max-Planck-Gesellschaft zur Förderung der Wissenschaften …, priority 2012, dated 2017)
